Experimental data reported in US10028992B2, “Methods of treating muscular dystrophy” (BOARD OF REGENTS OF THE NEVADA SYSTEM OF HIGHER EDUCATION …, priority 2012, dated 2018).

Tested on: α7 integrin promoter
Assay: muscle cell-based assay: α7βgal+/− myoblasts/myotubes, LacZ reporter, β-galactosidase cleavage of FDG
Parameters: species or system mouse
Details: Myotubes; for Results in a α7+/− β-galactosidase assay, Myotubes, 0.5 uM: compound at 0.5 uM; for Results in a α7+/− β-galactosidase assay, Myotubes, 1 uM: compound at 1 uM; for Results in a α7+/− β-galactosidase assay, Myotubes, 5 uM: compound at 5 uM; for Results in a α7+/− β-galactosidase assay, Myotubes, 10 uM: compound at 10 uM; for Results in a α7+/− β-galactosidase assay, Myotubes, 20 uM: compound at 20 uM; for Results in a α7+/− β-galactosidase assay, Myotubes, 40 uM: compound at 40 uM
In short: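 Primary α7βgal+/− mouse myoblasts (LacZ knocked into α7 integrin exon 1, promoter retained), differentiated; promoter activity read as β-galactosidase conversion of non-fluorescent FDG to fluorescein. Hits followed by dose-response, western analysis and myostatin counterscreen.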

SMILES | Results in a α7+/− β-galactosidase assay, Myotubes, 0.5 uM | Results in a α7+/− β-galactosidase assay, Myotubes, 1 uM | Results in a α7+/− β-galactosidase assay, Myotubes, 5 uM | Results in a α7+/− β-galactosidase assay, Myotubes, 10 uM | Results in a α7+/− β-galactosidase assay, Myotubes, 20 uM | Results in a α7+/− β-galactosidase assay, Myotubes, 40 uM
COc1ccccc1C(=O)Nc1ccnn1C1CCN(C(=O)c2ccoc2)CC1 [drawing 343] | 0.01341 | −0.07814 | 0.06946 | 0.05194 | −0.08844 | −0.04958
CCOC(=O)c1nnn(-c2nonc2OC)c1-c1ccccc1 [drawing 344] | 0.0549 | 0.07612 | 0.1364 | 0.03578 | 0.0782 | −0.03173
CC(C)(C)Nc1nc(-c2ccc3c(c2)CCN3C(=O)C2CC2)cs1 [drawing 345] | 0.1684 | 0.1611 | 0.06864 | 0.06011 | −0.1349 | −0.5189
CCN(C(=O)c1ccc(S(=O)(=O)N(C)C)cc1)C(C)C(=O)Nc1ccc(C)cc1 (stereo not drawn) [drawing 348] | −0.152 | −0.2399 | −0.0943 | 0.05776 | −0.2237 | 0.02912
COc1cc(NC(=O)OCc2ccccc2)c2ncccc2c1 [drawing 349] | 0.01764 | 0.03267 | −0.1098 | −0.05054 | −0.1951 | −0.2383
Cc1ccc2c(c1)/C(=C/c1ccccc1C)C(=O)N2 [drawing 350] | −0.01581 | −0.0839 | −0.04071 | 0.0246 | −0.4093 | −0.6283
O=C(NCCc1ccccc1)C1CCC(=O)N1C1CCCC1 (stereo not drawn) [drawing 351] | 0.05429 | −0.1351 | 0.08688 | 0.1206 | −0.1635 | −0.1123
CCCN(C(=O)c1ccc(S(=O)(=O)N2CCCC2)cc1)C1CCS(=O)(=O)C1 (stereo not drawn) [drawing 352] | −0.1044 | −0.1728 | −0.01555 | 0.1537 | −0.08104 | −0.06466
C=CCOc1ccc(C(=O)/C=C2\C(=O)Nc3ccccc32)cc1 [drawing 353] | −0.02111 | −0.0826 | −0.09703 | 0.05145 | −0.2835 | −0.2827
CCN(CC(=O)NCc1cccs1)C(=O)COc1ccc(C(N)=O)cc1 [drawing 354] | 0.06872 | −0.07237 | 0.09763 | 0.2952 | −0.2218 | −0.02391
